Laboratory results reported in patent publication US20240124442A1, “TRICYCLIC-AMIDO-BICYCLIC PRMT5 INHIBITORS” (AMGEN INC., priority 2021, published 2024).
Read-outs that look alike come from different tables or passages of the source.

Assays:
HCT116 MTAP null cells = assay: HCT116 MTAP null cell line proliferation / cell viability (CellTiter-Glo, 6 days); type: cell-based; settings: for IC50: HCT116 MTAP null cells, 6 days treatment, CellTiter-Glo cell viability, read-out: HCT-116 MTAP null IC50; for relative potency of the enantiomers (measured by IC50 in HCT116 MTAP null cell viability assay): comparison of the two enantiomers separated by SFC, used to assign (S)/(R)
Procedure, shortened: (§1)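 Viability read by CellTiter-Glo luminescence after 6 days of compound treatment of HCT116 WT and MTAP-null cells (RPMI 1640, 10% FBS). Dose series were 1:3 steps from 1 or 10 μM (8–9 points), or 1:2 steps from 10 or 50 μM (22 points). IC50 from 4-parameter logistic or fixed-slope sigmoidal fit.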

HCT116 WT cells = assay: HCT116 WT (parent) cell line proliferation / cell viability (CellTiter-Glo, 6 days); type: cell-based; settings: 6 days treatment
Procedure, shortened: as §1

Compound | IC50 (HCT116 MTAP null cells; 144 h) | IC50 (HCT116 WT cells; Homo sapiens, HCT-116, 144 h) | relative potency of the enantiomers (measured by IC50 in HCT116 MTAP null cell viability assay) (HCT116 MTAP null cells) | IC50 (HCT116 MTAP null cells) | IC50 (HCT116 WT cells; read-out: HCT-116 WT IC50)
CN(C(=O)c1ccc2nc(N)c3c(c2c1)COC3)C1COc2cc(C3=CCN(C(=O)OC(C)(C)C)CC3)ccc21 (racemic) [Example 614, 2-methyl-2-propanyl 4-((3R)-3-(((4-amino-1,3-dihydrofuro[3,4-c]quinolin-8-yl)carbonyl)(methyl)amino)-2,3-dihydro-1-benzofuran-6-yl)-3,6-dihydro-1(2H)-pyridinecarboxylate and 2-methyl-2-propanyl 4-((3S)-3-(((4-amino-1,3-dihydrofuro[3,4-c]quinolin-8-yl)carbonyl)(methyl)amino)-2,3-dihydro-1-benzofuran-6-yl)-3,6-dihydro-1(2H)-pyridinecarboxylate] | 127 nM | 1360 nM |  |  | 
CN(C(=O)c1ccc2nc(N)c3cnn(C)c3c2c1)C1CCc2ccccc21 (racemic) [Example 681, 4-amino-N-((1R)-2,3-dihydro-1H-inden-1-yl)-N,1-dimethyl-1H-pyrazolo[4,3-c]quinoline-8-carboxamide and 4-amino-N-((1S)-2,3-dihydro-1H-inden-1-yl)-N,1-dimethyl-1H-pyrazolo[4,3-c]quinoline-8-carboxamide] | 530 nM | 9330 nM |  |  | 
Cc1ccc2c(n1)CCC2N(C)C(=O)c1ccc2nc(N)c3cnn(C)c3c2c1 (racemic) [Example 682, 4-amino-N,1-dimethyl-N-((5R)-2-methyl-6,7-dihydro-5H-cyclopenta[b]pyridin-5-yl)-1H-pyrazolo[4,3-c]quinoline-8-carboxamide and 4-amino-N,1-dimethyl-N-((5S)-2-methyl-6,7-dihydro-5H-cyclopenta[b]pyridin-5-yl)-1H-pyrazolo[4,3-c]quinoline-8-carboxamide] | 297 nM | 21000 nM |  |  | 
CN(C(=O)c1ccc2nc(N)c3c(c2c1)COC3)[C@@H]1COc2cc(C(F)(F)F)ccc21 (single isomer, unassigned) [Example 317] | 24 nM | 1160 nM | more potent |  | 
CN(C(=O)c1ccc2nc(N)c3c(c2c1)COC3)[C@H]1COc2cc(C(F)(F)F)ccc21 (single isomer, unassigned) [Example 318] | 1360 nM | 10000 nM | less potent |  | 
CN(C(=O)c1ccc2nc(N)c3c(c2c1)COC3)[C@@H]1COc2cc([N+](=O)[O-])ccc21 (single isomer, unassigned) [Example 319] |  |  |  | 48 nM | 2210 nM
CN(C(=O)c1ccc2nc(N)c3c(c2c1)COC3)[C@H]1COc2cc([N+](=O)[O-])ccc21 (single isomer, unassigned) [Example 320] |  |  |  | 3660 nM | 36400 nM
[2H]C([2H])([2H])N(C(=O)c1ccc2nc(N)c3c(c2c1)COC3)[C@H]1COc2cc(C(F)(F)F)ccc21 (single isomer, unassigned) [Example 321] | 2660 nM | 20100 nM |  |  | 
[2H]C([2H])([2H])N(C(=O)c1ccc2nc(N)c3c(c2c1)COC3)[C@@H]1COc2cc(C(F)(F)F)ccc21 (single isomer, unassigned) [Example 322] | 41 nM | 1390 nM |  |  | 
CN(C(=O)c1ccc2nc(N)c3c(c2c1)COC3)[C@@H]1COc2cc(S(C)(=O)=O)ccc21 (single isomer, unassigned) [Example 323] | 76 nM | 3450 nM |  |  | 
CN(C(=O)c1ccc2nc(N)c3c(c2c1)COC3)[C@H]1COc2cc(S(C)(=O)=O)ccc21 (single isomer, unassigned) [Example 324] | 5320 nM | 50000 nM |  |  | 
CN(C(=O)c1ccc2nc(N)c3c(c2c1)COC3)[C@@H]1COc2cc(C(F)(F)F)cc(F)c21 (single isomer, unassigned) [Example 325] | 68 nM | 4160 nM |  |  | 
CN(C(=O)c1ccc2nc(N)c3c(c2c1)COC3)[C@H]1COc2cc(C(F)(F)F)cc(F)c21 (single isomer, unassigned) [Example 326] | 1780 nM | 20600 nM |  |  | 
CN(C(=O)c1ccc2nc(N)c3c(c2c1)COC3)[C@@H]1COc2cc(S(F)(F)(F)(F)F)ccc21 (single isomer, unassigned) [Example 327] | 11 nM | 457 nM |  |  | 
CN(C(=O)c1ccc2nc(N)c3c(c2c1)COC3)[C@H]1COc2cc(S(F)(F)(F)(F)F)ccc21 (single isomer, unassigned) [Example 328] | 2160 nM | 10100 nM |  |  | 
CN(C(=O)c1ccc2nc(N)c3c(c2c1)COC3)[C@@H]1COc2cc(Br)ccc21 (single isomer, unassigned) [Example 329] | 46 nM | 1820 nM |  |  | 
CN(C(=O)c1ccc2nc(N)c3c(c2c1)COC3)[C@H]1COc2cc(Br)ccc21 (single isomer, unassigned) [Example 330] | 1610 nM | 22900 nM |  |  | 
C[C@H]1OCc2c1c(N)nc1ccc(C(=O)N(C)[C@@H]3COc4cc(Br)ccc43)cc21 (single isomer, unassigned) [Example 331] | 26 nM | 2240 nM |  |  | 
C[C@H]1OCc2c1c(N)nc1ccc(C(=O)N(C)[C@H]3COc4cc(Br)ccc43)cc21 (single isomer, unassigned) [Example 332] | 920 nM | 22300 nM |  |  | 
CN(C(=O)c1cc2c3c(c(N)nc2cn1)COC3)[C@@H]1COc2cc(Cl)ccc21 (single isomer, unassigned) [Example 333] | 173 nM | 8480 nM |  |  | 

Compound | IC50 (HCT116 MTAP null cells; 144 h) | IC50 (HCT116 WT cells; Homo sapiens, HCT-116, 144 h) | relative potency of the enantiomers (measured by IC50 in HCT116 MTAP null cell viability assay) (HCT116 MTAP null cells) | IC50 (HCT116 MTAP null cells) | IC50 (HCT116 WT cells; read-out: HCT-116 WT IC50)
CN(C(=O)c1cc2c3c(c(N)nc2cn1)COC3)[C@H]1COc2cc(Cl)ccc21 (single isomer, unassigned) [Example 334] | 11900 nM | 50000 nM |  |  | 
CN(C(=O)c1cc2c3c(c(N)nc2cn1)COC3)[C@@H]1COc2nc(C(F)(F)F)ccc21 (single isomer, unassigned) [Example 335] | 272 nM | 10900 nM |  |  | 
CN(C(=O)c1cc2c3c(c(N)nc2cn1)COC3)[C@H]1COc2nc(C(F)(F)F)ccc21 (single isomer, unassigned) [Example 336] | 11900 nM | 50000 nM |  |  | 
[2H]C([2H])([2H])N(C(=O)c1cc2c3c(c(N)nc2cn1)COC3)[C@@H]1COc2cc(C(F)(F)F)ccc21 (single isomer, unassigned) [Example 337] | 41 nM | 2090 nM |  |  | 
[2H]C([2H])([2H])N(C(=O)c1cc2c3c(c(N)nc2cn1)COC3)[C@H]1COc2cc(C(F)(F)F)ccc21 (single isomer, unassigned) [Example 338] | 4680 nM | 37500 nM |  |  | 
CN(C(=O)c1cc2c3c(c(N)nc2cn1)COC3)[C@@H]1COc2cc(S(C)(=O)=O)ccc21 (single isomer, unassigned) [Example 339] | 237 nM | 8780 nM |  |  | 
CN(C(=O)c1cc2c3c(c(N)nc2cn1)COC3)[C@H]1COc2cc(S(C)(=O)=O)ccc21 (single isomer, unassigned) [Example 340] | 7320 nM | 50000 nM |  |  | 
CN(C(=O)c1cc2c3c(c(N)nc2cn1)COC3)[C@@H]1CCc2cc(OC(F)(F)F)ccc21 (single isomer, unassigned) [Example 341] | 184 nM | 6240 nM |  |  | 
CN(C(=O)c1cc2c3c(c(N)nc2cn1)COC3)[C@H]1CCc2cc(OC(F)(F)F)ccc21 (single isomer, unassigned) [Example 342] | 4440 nM | 28000 nM |  |  | 
CN(C(=O)c1cc2c3c(c(N)nc2cn1)COC3)[C@@H]1COc2cc(S(F)(F)(F)(F)F)ccc21 (single isomer, unassigned) [Example 343] | 19 nM | 581 nM |  |  | 
CN(C(=O)c1cc2c3c(c(N)nc2cn1)COC3)[C@H]1COc2cc(S(F)(F)(F)(F)F)ccc21 (single isomer, unassigned) [Example 344] | 1060 nM | 19400 nM |  |  | 
CN(C(=O)c1cc2c3c(c(N)nc2cn1)COC3)[C@@H]1COc2cc(Br)ccc21 (single isomer, unassigned) [Example 345] | 91 nM | 5440 nM |  |  | 
CN(C(=O)c1cc2c3c(c(N)nc2cn1)COC3)[C@H]1COc2cc(Br)ccc21 (single isomer, unassigned) [Example 346] | 6010 nM | 37000 nM |  |  | 
CN(C(=O)c1cc2c3c(c(N)nc2cc1F)COC3)[C@@H]1COc2cc(Cl)ccc21 (single isomer, unassigned) [Example 347] | 86 nM | 3220 nM |  |  | 
CN(C(=O)c1cc2c3c(c(N)nc2cc1F)COC3)[C@H]1COc2cc(Cl)ccc21 (single isomer, unassigned) [Example 348] | 1900 nM | 23400 nM |  |  | 
CN(C(=O)c1cc2c3c(c(N)nc2cc1F)COC3)[C@@H]1CCc2nc(C(F)(F)F)ccc21 (single isomer, unassigned) [Example 349] | 39 nM | 2240 nM |  |  | 
CN(C(=O)c1cc2c3c(c(N)nc2cc1F)COC3)[C@H]1CCc2nc(C(F)(F)F)ccc21 (single isomer, unassigned) [Example 350] | 3160 nM | 50000 nM |  |  | 
CN(C(=O)c1cc2c3c(c(N)nc2cc1F)COC3)[C@@H]1COc2nc(C(F)(F)F)ccc21 (single isomer, unassigned) [Example 351] | 83 nM | 2850 nM |  |  | 
CN(C(=O)c1cc2c3c(c(N)nc2cc1F)COC3)[C@H]1COc2nc(C(F)(F)F)ccc21 (single isomer, unassigned) [Example 352] | 3250 nM | 50000 nM |  |  | 
CN(C(=O)c1cc2c3c(c(N)nc2cc1F)COC3)[C@@H]1COc2cc(S(C)(=O)=O)ccc21 (single isomer, unassigned) [Example 353] | 32 nM | 1380 nM |  |  | 
